Laboratory results published in article PMC3119665, “A New Drug Design Targeting the Adenosinergic System for Huntington's Disease” (PLoS ONE, 2011).

Experiments:
A3 adenosine receptor = molecular target: T1, A3 adenosine receptor (Homo sapiens, UniProt P0DMS8); assay: Radioligand binding assay
T1 construct: host or cells: CHO-K1
T1 sequence (P0DMS8 1-318): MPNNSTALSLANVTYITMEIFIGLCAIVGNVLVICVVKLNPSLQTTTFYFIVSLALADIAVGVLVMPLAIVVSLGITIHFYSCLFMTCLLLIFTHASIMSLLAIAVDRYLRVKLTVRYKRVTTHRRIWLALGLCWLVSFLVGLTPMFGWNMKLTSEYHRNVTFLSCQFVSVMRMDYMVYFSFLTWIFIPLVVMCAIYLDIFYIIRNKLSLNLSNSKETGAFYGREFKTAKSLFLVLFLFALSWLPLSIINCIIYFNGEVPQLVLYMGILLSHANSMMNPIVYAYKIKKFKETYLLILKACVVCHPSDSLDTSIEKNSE

Adrenergic α 2A = molecular target: T2, Adrenergic α 2A (Homo sapiens, UniProt P08913); assay: Radioligand binding panel (Table S1); details: 10 μM T1-11, n 2
T2 construct: purchased MDS Pharma Services Taiwan

Adrenergic β 1 = molecular target: T3, Adrenergic β 1 (Homo sapiens, UniProt P08588); assay: Radioligand binding panel (Table S1); details: 10 μM T1-11, n 2
T3 construct: purchased MDS Pharma Services Taiwan

Adrenomedullin AM1 = molecular target: T4, Adrenomedullin AM1 (Homo sapiens, UniProt O60895+Q16602); assay: Radioligand binding panel (Table S1); details: 10 μM T1-11, n 2
T4 construct: purchased MDS Pharma Services Taiwan

APJ = molecular target: T5, APJ (Homo sapiens, UniProt P35414); assay: Radioligand binding panel (Table S1); details: 10 μM T1-11, n 2
T5 construct: purchased MDS Pharma Services Taiwan

Chemokine CCR1 = molecular target: T6, Chemokine CCR1 (Homo sapiens, UniProt P32246); assay: Radioligand binding panel (Table S1); details: 10 μM T1-11, n 2
T6 construct: purchased MDS Pharma Services Taiwan

Chemokine CCR4 = molecular target: T7, Chemokine CCR4 (Homo sapiens, UniProt P51679); assay: Radioligand binding panel (Table S1); details: 10 μM T1-11, n 2
T7 construct: purchased MDS Pharma Services Taiwan

[1] = tested on: Chemokine CXCR1/2 (IL-8, Non-Selective); assay: Radioligand binding panel (Table S1); parameters: species or system human; details: 10 μM T1-11, n 2
Colchicine = assay: Radioligand binding panel (Table S1); parameters: species or system rat; details: 10 μM T1-11, n 2
Protocol: Radoligand binding assays were performed by MDS Pharma Services Taiwan (Taipei, Taiwan) using standard binding protocols. For the binding assay of the A2AR [67], membrane proteins collected from HEK293 cells overexpressing the human A2AR were incubated in reaction buffer [50 mM Tris-HCl (pH 7.4), 10 mM MgCl2, 1 mM EDTA, and 2 U/mL adenosine deaminase] containing ^3H-CGS21680 (50 nM) for 90 min at 25°C. Nonspecific binding was assessed in the presence of 50 µM adenosine- 5′-N-ethylcarboxamide. […] Nonspecific binding was assessed in the presence of 1 µM IB-MECA (Tocris Bioscience, Ellisville, MS, USA).

[2] = molecular target: T8, G Protein-Coupled Receptor, GPR8 (Homo sapiens, UniProt P48146); assay: Radioligand binding panel (Table S1); details: 10 μM T1-11, n 2
T8 construct: purchased MDS Pharma Services Taiwan

Gabapentin = assay: Radioligand binding panel (Table S1); parameters: species or system rat; details: 10 μM T1-11, n 2
Glutamate, AMPA = assay: Radioligand binding panel (Table S1); parameters: species or system rat; details: 10 μM T1-11, n 2
Glutamate, NMDA, Agonism = assay: Radioligand binding panel (Table S1); parameters: species or system rat; details: 10 μM T1-11, n 2
Opiate, Non-Selective = assay: Radioligand binding panel (Table S1); parameters: species or system rat; details: 10 μM T1-11, n 2
[3] = molecular target: T9, Platelet Activating Factor (PAF) (Homo sapiens, UniProt P25105); assay: Radioligand binding panel (Table S1); details: 10 μM T1-11, n 2
T9 construct: purchased MDS Pharma Services Taiwan

Potassium Channel [KA] = assay: Radioligand binding panel (Table S1); parameters: species or system rat; details: 10 μM T1-11, n 2
Progesterone = assay: Radioligand binding panel (Table S1); parameters: species or system bovine; details: 10 μM T1-11, n 2
[4] = tested on: Serotonin (5-Hydroxytryptamine) 5-HT1, Non-Selective; assay: Radioligand binding panel (Table S1); parameters: species or system rat; details: 10 μM T1-11, n 2
[5] = molecular target: T10, Serotonin (5-Hydroxytryptamine) 5-HT1A (Homo sapiens, UniProt P08908); assay: Radioligand binding panel (Table S1); details: 10 μM T1-11, n 2
T10 construct: purchased MDS Pharma Services Taiwan

[6] = molecular target: T11, Serotonin (5-Hydroxytryptamine) 5-HT5A (Homo sapiens, UniProt P47898); assay: Radioligand binding panel (Table S1); details: 10 μM T1-11, n 2
T11 construct: purchased MDS Pharma Services Taiwan

Sodium Channel, Site 2 = assay: Radioligand binding panel (Table S1); parameters: species or system rat; details: 10 μM T1-11, n 2
Somatostatin sst3 = molecular target: T12, Somatostatin sst3 (Homo sapiens, UniProt P32745); assay: Radioligand binding panel (Table S1); details: 10 μM T1-11, n 2
T12 construct: purchased MDS Pharma Services Taiwan

Tachykinin NK3 = molecular target: T13, Tachykinin NK3 (Homo sapiens, UniProt P29371); assay: Radioligand binding panel (Table S1); details: 10 μM T1-11, n 2
T13 construct: purchased MDS Pharma Services Taiwan

Transporter, Choline = molecular target: T14, Transporter, Choline (Rattus norvegicus, UniProt Q9JMD7); assay: Radioligand binding panel (Table S1); details: 10 μM T1-11, n 2
T14 construct: purchased MDS Pharma Services Taiwan

Transporter, Glycin.e = assay: Radioligand binding panel (Table S1); parameters: species or system rat; details: 10 μM T1-11, n 2
[7] = molecular target: T15, Transporter, Norepinephrine (NET) (Homo sapiens, UniProt P23975); assay: Radioligand binding panel (Table S1); details: 10 μM T1-11, n 2
T15 construct: purchased MDS Pharma Services Taiwan

[8] = tested on: Tumor Necrosis Factor (TNF), Non-Selective; assay: Radioligand binding panel (Table S1); parameters: species or system human; details: 10 μM T1-11, n 2
Vasopressin V2 = molecular target: T16, Vasopressin V2 (Homo sapiens, UniProt P30518); assay: Radioligand binding panel (Table S1); details: 10 μM T1-11, n 2
T16 construct: purchased MDS Pharma Services Taiwan

R6/2 mice = assay: Rotarod performance of R6/2 mice; assay type: in vivo
From the text: Male R6/2 mice and littermate controls were originally obtained from Jackson Laboratories (Bar Harbor, ME, USA), and mated to female control mice (B6CBAFI/J). Offspring were identified by a polymerase chain reaction (PCR) genotyping technique of genomic DNA extracted from tail tissues using primers located in the transgene (5′-[…]-3′ and 5′-[…]- AGGAG-3′) to ensure that the number of CAG repeats remained approximately 150. In total, 211 R6/2 transgenic mice were used in this study. Animals were housed at the Institute of Biomedical Sciences Animal Care Facility under a 12-h light/dark cycle. Body weights of mice were recorded once daily. Animal experiments were performed under protocols approved by the Academia Sinica Institutional Animal Care and Utilization Committee, Taipei, Taiwan.
Motor coordination was assessed using a rotarod apparatus (UGO BASILE, Comerio, Italy) at a constant speed (12 rpm) over the period of 2 min [75]. All mice were trained for 2 days at the age of 4 weeks to allow them to become acquainted with the rotarod apparatus. Animals were then tested three times per week from the ages of 4∼12 weeks. For each test, animals were placed in the apparatus before initiation of rotation. Latency to falling was automatically recorded. Each mouse was given three trials for a maximum of 2 min for each trial.

[9] = CHO-K1 membranes, 3H-AB-MECA 0.5 nM

T16 sequence (P30518 whole entry): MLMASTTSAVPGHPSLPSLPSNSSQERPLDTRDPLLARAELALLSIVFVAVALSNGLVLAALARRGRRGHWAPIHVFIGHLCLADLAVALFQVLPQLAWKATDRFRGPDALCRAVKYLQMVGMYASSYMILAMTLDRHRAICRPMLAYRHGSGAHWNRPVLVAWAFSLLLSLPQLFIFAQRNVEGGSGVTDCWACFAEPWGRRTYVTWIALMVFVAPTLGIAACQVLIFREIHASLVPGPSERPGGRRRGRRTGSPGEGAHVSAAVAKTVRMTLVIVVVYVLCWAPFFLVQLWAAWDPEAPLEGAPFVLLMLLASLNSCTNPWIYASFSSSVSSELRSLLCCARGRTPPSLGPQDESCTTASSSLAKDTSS
T4 sequence (Q16602 23-461): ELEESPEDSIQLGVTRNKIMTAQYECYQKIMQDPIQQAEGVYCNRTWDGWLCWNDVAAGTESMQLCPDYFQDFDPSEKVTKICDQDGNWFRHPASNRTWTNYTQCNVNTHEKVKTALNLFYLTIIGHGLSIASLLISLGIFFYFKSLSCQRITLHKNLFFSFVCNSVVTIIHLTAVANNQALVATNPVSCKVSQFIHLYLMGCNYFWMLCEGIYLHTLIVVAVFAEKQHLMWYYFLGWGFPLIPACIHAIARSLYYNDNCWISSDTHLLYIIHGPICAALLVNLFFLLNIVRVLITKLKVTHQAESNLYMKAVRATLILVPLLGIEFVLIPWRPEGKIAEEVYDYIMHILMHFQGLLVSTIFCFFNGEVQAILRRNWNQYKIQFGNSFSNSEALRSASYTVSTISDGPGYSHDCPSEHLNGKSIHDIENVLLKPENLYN
T4 sequence (O60895 43-175 partner): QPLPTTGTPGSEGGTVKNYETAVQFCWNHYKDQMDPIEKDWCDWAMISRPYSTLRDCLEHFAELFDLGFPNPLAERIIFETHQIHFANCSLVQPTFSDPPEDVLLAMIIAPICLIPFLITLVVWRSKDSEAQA
T11 sequence (P47898 whole entry): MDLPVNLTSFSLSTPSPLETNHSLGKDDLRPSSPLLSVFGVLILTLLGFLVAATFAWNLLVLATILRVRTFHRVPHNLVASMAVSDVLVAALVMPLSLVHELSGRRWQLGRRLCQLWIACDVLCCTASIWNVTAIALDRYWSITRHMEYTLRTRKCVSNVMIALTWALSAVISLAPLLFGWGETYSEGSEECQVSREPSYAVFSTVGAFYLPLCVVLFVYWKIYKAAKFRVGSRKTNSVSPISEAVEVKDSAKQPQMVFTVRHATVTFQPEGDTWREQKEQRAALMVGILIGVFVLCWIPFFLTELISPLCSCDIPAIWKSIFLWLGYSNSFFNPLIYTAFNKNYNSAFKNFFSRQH
T9 sequence (P25105 whole entry): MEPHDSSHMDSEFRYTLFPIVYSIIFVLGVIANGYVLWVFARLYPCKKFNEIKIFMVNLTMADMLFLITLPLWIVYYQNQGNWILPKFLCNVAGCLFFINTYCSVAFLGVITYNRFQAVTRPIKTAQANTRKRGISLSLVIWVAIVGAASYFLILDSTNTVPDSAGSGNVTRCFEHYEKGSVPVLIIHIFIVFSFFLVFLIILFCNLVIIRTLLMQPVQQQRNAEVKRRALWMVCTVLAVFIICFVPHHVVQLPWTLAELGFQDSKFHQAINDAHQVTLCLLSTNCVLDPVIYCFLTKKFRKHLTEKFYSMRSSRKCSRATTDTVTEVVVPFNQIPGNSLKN
T2 sequence (P08913 whole entry): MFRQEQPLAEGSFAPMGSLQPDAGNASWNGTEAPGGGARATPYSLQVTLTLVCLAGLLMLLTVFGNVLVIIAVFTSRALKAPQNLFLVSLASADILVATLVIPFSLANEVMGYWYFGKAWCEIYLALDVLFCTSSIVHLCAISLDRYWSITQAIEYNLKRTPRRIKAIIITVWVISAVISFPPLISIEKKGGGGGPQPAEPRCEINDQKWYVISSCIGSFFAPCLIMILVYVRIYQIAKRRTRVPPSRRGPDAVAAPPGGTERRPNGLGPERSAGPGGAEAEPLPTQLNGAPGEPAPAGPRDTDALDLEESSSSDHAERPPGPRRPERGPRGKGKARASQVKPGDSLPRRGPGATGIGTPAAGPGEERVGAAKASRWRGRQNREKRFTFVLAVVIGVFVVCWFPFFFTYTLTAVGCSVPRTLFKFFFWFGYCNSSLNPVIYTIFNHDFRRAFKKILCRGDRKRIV
T13 sequence (P29371 whole entry): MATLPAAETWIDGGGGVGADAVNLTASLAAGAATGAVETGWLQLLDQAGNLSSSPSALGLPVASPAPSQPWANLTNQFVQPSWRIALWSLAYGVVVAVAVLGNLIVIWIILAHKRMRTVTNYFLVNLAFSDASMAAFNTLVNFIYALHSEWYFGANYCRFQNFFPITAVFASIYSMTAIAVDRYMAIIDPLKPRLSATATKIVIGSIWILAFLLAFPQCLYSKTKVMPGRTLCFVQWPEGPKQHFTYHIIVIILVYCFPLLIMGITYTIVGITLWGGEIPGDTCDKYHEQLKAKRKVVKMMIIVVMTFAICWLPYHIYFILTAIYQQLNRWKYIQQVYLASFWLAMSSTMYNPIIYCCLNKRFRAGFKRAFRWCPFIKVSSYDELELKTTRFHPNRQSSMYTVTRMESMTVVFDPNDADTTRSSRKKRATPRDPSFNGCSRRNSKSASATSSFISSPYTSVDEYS
T15 sequence (P23975 whole entry): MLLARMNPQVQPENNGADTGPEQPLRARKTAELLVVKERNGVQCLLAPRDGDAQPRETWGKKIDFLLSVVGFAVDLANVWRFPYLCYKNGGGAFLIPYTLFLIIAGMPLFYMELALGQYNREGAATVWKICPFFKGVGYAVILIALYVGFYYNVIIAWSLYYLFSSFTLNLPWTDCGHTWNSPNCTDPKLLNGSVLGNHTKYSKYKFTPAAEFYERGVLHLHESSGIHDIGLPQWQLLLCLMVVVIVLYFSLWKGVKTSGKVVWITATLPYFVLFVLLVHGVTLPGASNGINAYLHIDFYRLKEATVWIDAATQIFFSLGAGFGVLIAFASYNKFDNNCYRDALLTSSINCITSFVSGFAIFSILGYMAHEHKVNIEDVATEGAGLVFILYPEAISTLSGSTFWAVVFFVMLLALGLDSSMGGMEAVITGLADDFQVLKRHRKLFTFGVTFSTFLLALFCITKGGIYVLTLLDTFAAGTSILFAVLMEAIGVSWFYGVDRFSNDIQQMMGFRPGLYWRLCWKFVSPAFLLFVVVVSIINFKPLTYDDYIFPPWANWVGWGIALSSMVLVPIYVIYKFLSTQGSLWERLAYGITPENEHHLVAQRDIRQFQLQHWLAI
T12 sequence (P32745 whole entry): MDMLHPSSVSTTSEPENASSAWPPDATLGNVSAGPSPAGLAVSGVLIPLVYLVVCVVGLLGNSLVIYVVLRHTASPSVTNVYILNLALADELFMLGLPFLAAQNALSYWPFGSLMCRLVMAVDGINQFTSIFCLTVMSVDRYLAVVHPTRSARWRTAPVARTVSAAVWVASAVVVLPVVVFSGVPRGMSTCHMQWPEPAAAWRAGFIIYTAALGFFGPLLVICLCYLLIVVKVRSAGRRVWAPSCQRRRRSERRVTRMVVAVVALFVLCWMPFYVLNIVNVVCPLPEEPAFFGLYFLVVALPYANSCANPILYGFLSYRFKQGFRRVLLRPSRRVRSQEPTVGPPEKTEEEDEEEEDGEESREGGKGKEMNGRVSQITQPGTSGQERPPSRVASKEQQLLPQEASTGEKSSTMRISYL
T10 sequence (P08908 whole entry): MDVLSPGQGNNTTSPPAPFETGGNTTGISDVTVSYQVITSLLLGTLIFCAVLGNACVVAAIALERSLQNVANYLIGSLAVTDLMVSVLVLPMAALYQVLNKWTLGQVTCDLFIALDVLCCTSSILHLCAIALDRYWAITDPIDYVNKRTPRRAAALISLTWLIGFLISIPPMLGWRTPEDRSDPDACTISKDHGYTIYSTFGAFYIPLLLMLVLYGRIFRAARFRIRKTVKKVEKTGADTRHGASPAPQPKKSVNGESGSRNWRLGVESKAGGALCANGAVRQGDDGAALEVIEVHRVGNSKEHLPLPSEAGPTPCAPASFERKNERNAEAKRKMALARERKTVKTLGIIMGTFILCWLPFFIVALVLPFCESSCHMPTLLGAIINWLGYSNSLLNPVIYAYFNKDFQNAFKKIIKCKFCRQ
T8 sequence (P48146 whole entry): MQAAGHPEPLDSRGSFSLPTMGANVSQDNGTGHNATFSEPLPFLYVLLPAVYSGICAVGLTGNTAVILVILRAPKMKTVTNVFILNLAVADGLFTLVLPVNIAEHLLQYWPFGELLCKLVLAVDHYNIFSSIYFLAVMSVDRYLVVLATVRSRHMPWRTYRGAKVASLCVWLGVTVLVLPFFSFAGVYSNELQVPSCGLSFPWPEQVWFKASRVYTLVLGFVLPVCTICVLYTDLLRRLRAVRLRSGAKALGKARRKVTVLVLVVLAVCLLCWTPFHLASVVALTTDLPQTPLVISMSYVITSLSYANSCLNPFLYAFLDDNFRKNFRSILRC
T3 sequence (P08588 whole entry): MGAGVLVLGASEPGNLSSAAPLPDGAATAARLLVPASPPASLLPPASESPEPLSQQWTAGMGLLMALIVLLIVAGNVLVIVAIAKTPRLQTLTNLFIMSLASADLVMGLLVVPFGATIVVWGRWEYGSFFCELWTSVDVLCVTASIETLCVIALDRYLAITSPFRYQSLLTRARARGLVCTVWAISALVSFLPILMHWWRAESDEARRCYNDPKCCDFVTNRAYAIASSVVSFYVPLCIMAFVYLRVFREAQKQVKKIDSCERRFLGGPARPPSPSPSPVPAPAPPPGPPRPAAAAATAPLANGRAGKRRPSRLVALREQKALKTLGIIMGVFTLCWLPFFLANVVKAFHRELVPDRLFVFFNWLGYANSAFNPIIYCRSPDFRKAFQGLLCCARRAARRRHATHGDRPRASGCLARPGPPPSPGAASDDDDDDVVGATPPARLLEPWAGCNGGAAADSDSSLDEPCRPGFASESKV

OC[C@H]1O[C@@H](n2cnc3c(NCc4ccc(O)cc4)ncnc32)[C@H](O)[C@@H]1O [T1-11, N ^6-(4-hydroxybenzyl)adenine riboside]
inhibition at 10 µM (A3 adenosine receptor; 10 μM T1-11, n 2): 103%
IC50 (A3 adenosine receptor; [9]): 110 nM
Ki (A3 adenosine receptor; [9]): 100 nM
inhibition at 10 µM (Adrenergic α 2A): -8%
inhibition at 10 µM (Adrenergic β 1): 7%
inhibition at 10 µM (Adrenomedullin AM1): 11%
inhibition at 10 µM (APJ): 21%
inhibition at 10 µM (Chemokine CCR1): -3%
inhibition at 10 µM (Chemokine CCR4): 5%
% Inhibition [1]: 10%
% Inhibition (Colchicine): -2%
inhibition at 10 µM [2]: 15%
% Inhibition (Gabapentin): 8%
% Inhibition (Glutamate, AMPA): -9%
% Inhibition (Glutamate, NMDA, Agonism): 10%
% Inhibition (Opiate, Non-Selective): -13%
inhibition at 10 µM [3]: 7%
% Inhibition (Potassium Channel [KA]): 1%
% Inhibition (Progesterone): 9%
% Inhibition [4]: 10%
inhibition at 10 µM [5]: 9%
inhibition at 10 µM [6]: -7%
% Inhibition (Sodium Channel, Site 2): 3%
inhibition at 10 µM (Somatostatin sst3): 15%
inhibition at 10 µM (Tachykinin NK3): -3%
inhibition at 10 µM (Transporter, Choline): -10%
% Inhibition (Transporter, Glycin.e): 1%
inhibition at 10 µM [7]: 6%
% Inhibition [8]: -2%
inhibition at 10 µM (Vasopressin V2): -5%
Motor coordination (rotarod performance) (R6/2 mice; 0.05 mg/ml in drinking water from the age of 7 weeks): counteracted the progressive deterioration in motor coordination
Motor deterioration (rotarod performance) (R6/2 mice; subcutaneous Alzet minipump, 125 µg/mouse/day): improved motor deterioration
